Here are results for 25 compounds from patent US9187472B2 (AbbVie Inc., priority 2012, dated 2015).

The target in one experiment is NAMPT (Homo sapiens, UniProt P43490). Put plainly: TR-FRET Binding Assay of NAMPT with PRPP. As to conditions: with 200 μM PRPP and 2.5 mM ATP; 2 nM NAMPT, 2 nM probe, 16 hours equilibration. An outline of the steps: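 Compounds were mixed with 2 nM His-tagged NAMPT, 2 nM probe, 1 nM terbium anti-His antibody, 200 μM PRPP and 2.5 mM ATP in assay buffer with 2% DMSO, then left 16 hours to permit possible enzymatic processing of compounds before time-resolved FRET was measured.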
Chain of NAMPT (P43490 whole entry): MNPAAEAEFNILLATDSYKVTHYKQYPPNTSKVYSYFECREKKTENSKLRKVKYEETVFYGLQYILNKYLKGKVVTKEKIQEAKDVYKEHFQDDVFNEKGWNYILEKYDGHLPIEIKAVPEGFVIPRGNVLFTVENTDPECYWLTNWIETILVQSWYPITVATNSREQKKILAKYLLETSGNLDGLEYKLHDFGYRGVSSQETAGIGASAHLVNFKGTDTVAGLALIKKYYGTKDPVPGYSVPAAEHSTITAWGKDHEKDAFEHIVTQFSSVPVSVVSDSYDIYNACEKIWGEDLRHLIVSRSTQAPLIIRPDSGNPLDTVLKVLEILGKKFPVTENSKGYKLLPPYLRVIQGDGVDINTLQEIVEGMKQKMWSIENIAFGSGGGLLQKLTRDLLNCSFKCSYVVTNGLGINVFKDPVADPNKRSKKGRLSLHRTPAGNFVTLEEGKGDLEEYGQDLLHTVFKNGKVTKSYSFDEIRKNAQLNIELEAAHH

The subject of a further experiment is PC3 cells. Put plainly: NAMPT Cell Proliferation Assay. In kind it is cell-based. As to conditions: Homo sapiens, PC-3, 120 h, 5 days incubation, cell viability by Cell Titer Glo. An outline of the steps:
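Seed PC3 at 500 cells/well (RPMI, 10% HI-FBS), attach overnight; add compound, 10-fold series 10 μM → 1×10^−5 μM; incubate 5 d, 37° C/5% CO2; luminescent viability readout; fit % inhibition sigmoidally for IC50.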
In general terms: Cellular ATP, detected with luciferase, serves as a proxy for viable cell number.

For experiment [1], the target named is NAMPT (human, recombinant, C-terminally His-tagged) (Homo sapiens, UniProt P43490). Put plainly: Time-Resolved Fluorescence Resonance Energy Transfer (TR-FRET) Binding Assay of NAMPT. As to conditions: without substrates; 6.8 nM NAMPT, 200 nM probe, 3 hours equilibration. The method, boiled down: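 Compounds, diluted in half-log steps, are mixed with enzyme (6.8 nM), fluorescent probe (200 nM) and Tb-anti-His antibody (1 nM) in pH 7.5 HEPES buffer containing 10 mM MgCl2 and 1 mM DTT. Plates equilibrate 3 h at room temperature; normalized FRET ratios are fitted by four-parameter logistic regression for IC50.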
Chain of NAMPT (human, recombinant, C-terminally His-tagged) (P43490 whole entry): as above

On to `O=C(NCc1ccn2ccnc2c1)Nc1ccc(OC2CCN(C(=O)c3cc(F)ccc3F)CC2)cc1` [Example 728, 1-(4-{[1-(2,5-difluorobenzoyl)piperidin-4-yl]oxy}phenyl)-3-(imidazo[1,2-a]pyridin-7-ylmethyl)urea], for which the IC50 on NAMPT was 0.496 nM; in the experiment with PC3 cells it was 21 nM; in experiment [1] it was 140 nM.
For `O=C(NCc1ccn2ccnc2c1)c1ccc(C2CN(C(=O)c3ccccc3Cl)C2)cc1` [Example 643, 4-[1-(2-chlorobenzoyl)azetidin-3-yl]-N-(imidazo[1,2-a]pyridin-7-ylmethyl)benzamide] the same measures were 0.552 nM, 6.9 nM and 28 nM.
For `O=C(NCc1ccc2nccn2c1)c1ccc(C2=CCN(C(=O)C3COCCO3)CC2)cc1` (stereo not drawn) [Example 102, 4-[1-(1,4-dioxan-2-ylcarbonyl)-1,2,3,6-tetrahydropyridin-4-yl]-N-(imidazo[1,2-a]pyridin-6-ylmethyl)benzamide], in that order: 1.21 nM, 13 nM and 385 nM.
For `COCCC(=O)N(CC1CCCO1)c1ncc(C(=O)NCc2ccn3ccnc3c2)s1` (stereo not drawn) [Example 121, N-(imidazo[1,2-a]pyridin-7-ylmethyl)-2-[(3-methoxypropanoyl)(tetrahydrofuran-2-ylmethyl)amino]-1,3-thiazole-5-carboxamide], in that order: 0.234 nM, 3.91 nM and 486 nM.
`CC(C)OCCNC(=O)N(C[C@H]1CCCO1)c1ncc(C(=O)NCc2ccc3nccn3c2)s1` [Example 154, N-(imidazo[1,2-a]pyridin-6-ylmethyl)-2-({[2-(propan-2-yloxy)ethyl]carbamoyl}[(2R)-tetrahydrofuran-2-ylmethyl]amino)-1,3-thiazole-5-carboxamide]: the 50% inhibitory concentration (IC50) at NAMPT was 2.6 nM; in the experiment on PC3 cells, 6.67 nM; in experiment [1], 194 nM.
For `CC1(C(=O)N2CC(c3ccc(C(=O)NCc4ccn5ccnc5c4)cc3)C2)CC1` [Example 632, N-(imidazo[1,2-a]pyridin-7-ylmethyl)-4-{1-[(1-methylcyclopropyl)carbonyl]azetidin-3-yl}benzamide] the same measures were 0.698 nM, 32.3 nM and 270 nM.
For `O=C(NCc1ccn2ccnc2c1)c1ccc(-c2cnn(CC3CCCOC3)c2)o1` (stereo not drawn) [Example 479, N-(imidazo[1,2-a]pyridin-7-ylmethyl)-5-[1-(tetrahydro-2H-pyran-3-ylmethyl)-1H-pyrazol-4-yl]furan-2-carboxamide] the same measures were 0.243 nM, 8.08 nM and 63 nM.
For the compound `CCC(C)CNC(=O)c1ccc(NC(=O)Nc2ccc3nccn3c2)cc1` (stereo not drawn) [Example 20, 4-[(imidazo[1,2-a]pyridin-6-ylcarbamoyl)amino]-N-(2-methylbutyl)benzamide], the IC50 amounted to 0.169 nM at NAMPT, 102 nM in the experiment on PC3 cells and 404 nM in experiment [1].
Turning to `O=C(NCc1ccn2ccnc2c1)c1ccc(C2CCN(C(=O)c3ccc(F)cc3)C2)cc1` (stereo not drawn) [Example 562, 4-[1-(4-fluorobenzoyl)pyrrolidin-3-yl]-N-(imidazo[1,2-a]pyridin-7-ylmethyl)benzamide], the IC50 on NAMPT worked out at 0.607 nM; in the experiment with PC3 cells it was 70.9 nM; in experiment [1] it was 218 nM.
For `COCCN1CCN(c2ncc(C(=O)NCc3ccn4ccnc4c3)s2)CC1` [Example 357, N-(imidazo[1,2-a]pyridin-7-ylmethyl)-2-[4-(2-methoxyethyl)piperazin-1-yl]-1,3-thiazole-5-carboxamide] the same measures were 0.291 nM, 6740 nM and above 10000 nM.
For `O=C(NCc1ccn2ccnc2c1)c1ccc(C2CCN(C(=O)Cc3cccc(F)c3)C2)s1` (stereo not drawn) [Example 761, 5-{1-[(3-fluorophenyl)acetyl]pyrrolidin-3-yl}-N-(imidazo[1,2-a]pyridin-7-ylmethyl)thiophene-2-carboxamide], in that order: 0.394 nM, 27.7 nM and 94.4 nM.
With `COCCC(=O)N(Cc1ccc(C#N)cc1)c1ncc(C(=O)NCc2ccc3nccn3c2)s1` [Example 56, 2-[(4-cyanobenzyl)(3-methoxypropanoyl)amino]-N-(imidazo[1,2-a]pyridin-6-ylmethyl)-1,3-thiazole-5-carboxamide], the IC50 at NAMPT was 1.07 nM; in the experiment with PC3 cells, 8.86 nM; in experiment [1], 158 nM.
Regarding `CC(C)(C)OC(=O)N1CCC(c2ccc(C(=O)NCc3cn4ccnc4cn3)cc2)CC1` [Example 678, tert-butyl 4-{4-[(imidazo[1,2-a]pyrazin-6-ylmethyl)carbamoyl]phenyl}piperidine-1-carboxylate], the figures for the 50% inhibitory concentration (IC50) (at NAMPT; in the experiment on PC3 cells; in experiment [1]) were 0.23 nM, 15.1 nM and 41.2 nM, respectively.
For `O=C(NCc1ccn2ccnc2c1)Nc1ccc(C2CCN(C(=O)c3cc(F)cc(F)c3)CC2)cc1` [Example 724, 1-{4-[1-(3,5-difluorobenzoyl)piperidin-4-yl]phenyl}-3-(imidazo[1,2-a]pyridin-7-ylmethyl)urea] the same measures were 0.992 nM, 63.2 nM and 161 nM.
For `CC(C)(C)CC(=O)N1CC=C(c2ccc(C(=O)NCc3ccn4ccnc4c3)o2)CC1` [Example 749, 5-[1-(3,3-dimethylbutanoyl)-1,2,3,6-tetrahydropyridin-4-yl]-N-(imidazo[1,2-a]pyridin-7-ylmethyl)furan-2-carboxamide], in that order: 0.79 nM, 77 nM and 392 nM.
For `O=C(NCc1ccc2nccn2c1)c1ccc(OC2CCN(C(=O)C3CCOCC3)CC2)cc1` [Example 162, N-(imidazo[1,2-a]pyridin-6-ylmethyl)-4-{[1-(tetrahydro-2H-pyran-4-ylcarbonyl)piperidin-4-yl]oxy}benzamide] the same measures were 2.09 nM, 43.6 nM and 2570 nM.
As to `O=C(NCc1ccn2ccnc2c1)c1cnc(C2CCN(C(=O)c3ccccc3)CC2)s1` [Example 545, 2-(1-benzoylpiperidin-4-yl)-N-(imidazo[1,2-a]pyridin-7-ylmethyl)-1,3-thiazole-5-carboxamide], the results for the concentration for half-maximal inhibition (IC50) (at NAMPT; in the experiment on PC3 cells; in experiment [1]) were 0.403 nM, 28.7 nM and 109 nM, respectively.
With `COc1ccc(C(CO)NC(=O)c2ccc(NC(=O)Nc3ccc4nccn4c3)cc2)cc1` (stereo not drawn) [Example 14, N-[2-hydroxy-1-(4-methoxyphenyl)ethyl]-4-[(imidazo[1,2-a]pyridin-6-ylcarbamoyl)amino]benzamide], the IC50 at NAMPT was 1.22 nM; with PC3 cells it was 644 nM; in experiment [1], 741 nM.
For `O=C(NCc1ccc2nccn2c1)c1ccc(OC2CCN(C(=O)[C@H]3CCCO3)CC2)cc1` [Example 165, N-(imidazo[1,2-a]pyridin-6-ylmethyl)-4-({1-[(2R)-tetrahydrofuran-2-ylcarbonyl]piperidin-4-yl}oxy)benzamide] the same measures were 1.61 nM, 137 nM and 1530 nM.
`O=C(NCc1ccn2ccnc2c1)c1ccc(C2CCN(C(=O)C3CCCCC3)CC2)cc1` [Example 502, 4-[1-(cyclohexylcarbonyl)piperidin-4-yl]-N-(imidazo[1,2-a]pyridin-7-ylmethyl)benzamide]: the results for the 50% inhibitory concentration (IC50) (at NAMPT; in the experiment on PC3 cells; in experiment [1]) were 0.385 nM, 16.5 nM and 169 nM, respectively.
For the compound `CC(C)C[C@@H](NC(=O)CC1CCOC1)c1ccc(C(=O)NCc2ccn3ccnc3c2)s1` (stereo partly drawn) [Example 686, N-(imidazo[1,2-a]pyridin-7-ylmethyl)-5-{(1R)-3-methyl-1-[(tetrahydrofuran-3-ylacetyl)amino]butyl}thiophene-2-carboxamide], the concentration for half-maximal inhibition (IC50) on NAMPT is 1.3 nM; with PC3 cells, 77.2 nM; in experiment [1], 959 nM.
For `O=C(NCc1ccn2ccnc2c1)c1ccc(C2CN(C(=O)c3ccc(F)cc3F)C2)cc1` [Example 641, 4-[1-(2,4-difluorobenzoyl)azetidin-3-yl]-N-(imidazo[1,2-a]pyridin-7-ylmethyl)benzamide] the same measures were 0.684 nM, 9.99 nM and 74.8 nM.
In the case of `O=C(CC1CCOCC1)Nc1ccc(C(=O)NCc2ccn3ccnc3c2)cc1` [Example 208, N-(imidazo[1,2-a]pyridin-7-ylmethyl)-4-[(tetrahydro-2H-pyran-4-ylacetyl)amino]benzamide], the IC50 at NAMPT was 0.169 nM; in the experiment on PC3 cells it was 84.9 nM; in experiment [1], 404 nM.
As for `O=C(NCc1ccn2ccnc2c1)Nc1ccc(NS(=O)(=O)c2ccccc2-c2ccccc2)cc1` [Example 303, N-(4-{[(imidazo[1,2-a]pyridin-7-ylmethyl)carbamoyl]amino}phenyl)biphenyl-2-sulfonamide], the half-maximal inhibitory concentration (IC50) at NAMPT worked out at 0.169 nM; with PC3 cells, 1.79 nM; in experiment [1], 9.99 nM.
As for `O=C(NCc1ccn2ccnc2c1)c1ccc(C2(O)CN(C(=O)CC3CCOCC3)C2)s1` [Example 406, 5-[3-hydroxy-1-(tetrahydro-2H-pyran-4-ylacetyl)azetidin-3-yl]-N-(imidazo[1,2-a]pyridin-7-ylmethyl)thiophene-2-carboxamide], the IC50 is 0.505 nM on NAMPT, 347 nM in the experiment on PC3 cells and 1140 nM in experiment [1].

Broadly, the IC50 is the concentration needed to halve the response being measured.
